Experiments:
[1] = molecular target: recombinant human LDHA protein (Homo sapiens, UniProt P00338); assay: In vitro LDHA inhibitory assay (NADH consumption); format: biochemical; details: for inhibition at 100 µg/mL: three replicates, read-out: Mean Inhibition Percent ± SD, LDHA; for IC50: three independent experiments, read-out: Mean IC50 µM ± SD, LDHA
From the text: The LDHA inhibitory efficiencies were investigated on Spectramax M2 spectrofluorometer via measuring the amounts of the consumed NADH^40 using an NAD^+/NADH quantification kit. […]
S3.2.3. In vitro LDHA inhibitory assay.
The LDHA inhibitory activity of the test compounds was investigated using Spectramax M2
spectrofluorometer by measuring the amounts of the consumed NADH [42] employing
NAD+/NADH quantification kit. Briefly, the assay medium containing various concentrations of
each test compound (50, 100, 200 and 300 μg/mL) was incubated in assay medium composed of 20
mM of HEPES-K+ buffer (pH 7.2), 20 μM of NADH, 2 mM of pyruvate and 10 ng of purified
recombinant human LDHA protein for 10 min utes. The activity of LDHA would result in reduction
of pyruvate into lactate with concomitant oxidation of NADH to NAD +. Since NADH (reduced
LDHA, could be inversely quantified by monitoring the change in the intensity of the fluorescence
at 340 nm over a 10-minute period. The rate of the fluorescence change (slope) in treated samples
was compared to that obtained from negative control experiment (100 % enzymatic activity) to
determine the percentage of inhibition. The IC50 value—defined as the compound concentration
required to reduce the luminescence by 50%, compared to untreated control wells—was
determined for each compound from the corresponding dose–response curve generated by
plotting LDHA inhibition (%) against compound concentration.
was used as the reference LDHA inhibitor. […]

[2] = system: LoVo colon carcinoma cells; assay: Cell viability, LDH release assay, LoVo; details: Homo sapiens, LoVo, 48 h; for viability at 100 µg/mL: read-out: Mean % of viable cells ± SD, LoVo, 100 µg/mL, 48 h, LDH release assay; for IC50: read-out: Mean IC50 Values in µM ± SD, LoVo cells
Procedure: (§1) The studied compounds were also screened for their cytotoxic effects on HCT-116 and LoVo colon carcinoma cells, as well as normal HUVECs, using the standard LDH assay at a concentration of 100 µg/mL.
(§2) The antiproliferative activities of the newly synthesized compounds 3a–e, 8, 9a–c, 13, 14, 17, 18a–h, 20, 22, 23 and 25 were examined on human colon HCT-116 and LoVo cell lines as well as HUVEC (American Type Culture Collection, Manassas, VA, USA). […]
(§3) S3.2.4. Cell culture and viability assay.
(§4) The cytotoxic activities of the newly synthesized compounds (3a-e, 8, 9a-c, 13, 14, 17, 18a-h, 20, 22,
(§5) 23, and 25) were examined on human colon cancer cell lines HCT-116 and Lovo (American Type
(§6) Culture Collection, USA). Various concentrations (50, 100, 200, and 400 μg/mL) of test compounds
(§7) were prepared in Dulbecco’s Modified Eagles Medium (PAN-Biotech, Barcelona, Spain),

[3] = DPPH radical scavenging assay; details: three independent experiments; read-out: Mean IC50 (mM) for initial DPPH radicals ± SD
Procedure: The antioxidant activities of the studied compounds were assessed using the 1,1-diphenyl-2-picrylhydrazyl (DPPH) radical scavenging method as detailed by Bersuder et al.. The results were expressed as IC50 (mM)—the concentration of the test compound required to neutralize 50% of DPPH radicals.
The antioxidant efficiencies of target compounds were determined using the 1,1-diphenyl-2-picrylhydrazyl (DPPH) radical scavenging method as detailed by Bersuder et al.. […]
S3.2. Evaluation of Biological Activities.
S3.2.1. In vitro DPPH radical scavenging assay.
The antioxidant efficiencies of compounds—3a−e, 8, 9a−c, 13, 14, 17, 18a−h, 20, 22, 23, and 25—were
determined using the 1,1-diphenyl-2-picrylhydrazyl (DPPH) radical scavenging method as
detailed by Bersuder et al.. Fundamentally, the purple color of the stabilized DPPH radical
fades in the presence of an antioxidant, thus, the change of absorbance can be followed
spectrophotometrically at 519 nm. In the assay, equal volumes (0.5 mL) of DPPH ethanolic solution
and each compound (0-2 mg/mL in DMSO) or butylated hydroxytoluene (BHT) as the reference
were mixed well by shaking. The negative control consisted of the same amount of DMSO and
DPPH solution. After, incubation all mixtures at room temperature in the dark for one hour, the
absorbance of the residual DPPH radicals was measured at 519 nm using the UV‐vis
spectrophotometer. The DPPH radical scavenging activity of each compound (%) was calculated
Scavenging activity = (1 − Acompound/AControl) * 100, where Acompound and Acontrol the absorbance values
of each tested compound (or BHT) and the negative control, respectively. The half maximal
inhibitory concentration (IC50) for each compound in mg/mL was deduced by graphing the dose-
response curve relating the scavenging activity (%) to the compound concentration. Data points
represent the mean ± standard deviation (SD) of three independent determinations.

[4] = Cell viability, LDH release assay, normal HUVECs; details: human, normal HUVECs, Mean % of viable cells ± SD, HUVEC
Procedure: as §1, §2
medium served used as negative and positive controls, respectively. Percentages of viable cells […]
were calculated based on relative optical density (OD) values (at 550 nm) for compound-treated […]
wells (final concentration of 100 μg/mL), compared to the negative control, and expressed as mean value (%) ± SD from two replicates. Graphing dose-response curves representing the compound […]
concentration versus the percentages of viable cells was also conducted to deduce the half - […]
Additionally, the safety profiles of the studied compounds were assessed against normal cells […]
(HUVECs) at final concentration of 100 μg/mL . HUVECs were grown in Dulbecco’s Modified Eagle’s Medium supplemented with 10% FBS, 2 mM glutamine (Sigma Aldrich), 100 units/mL penicillin and […] streptomycin (Life Technologies; Paisley, UK). […]

PDK-1 = PDK-1 (Homo sapiens, UniProt Q15118); assay: In vitro PDK-1 inhibition assay (Kinase-Glo luminescent kinase kit); format: biochemical; details: for inhibition at 100 µg/mL: three replicates, read-out: Mean Inhibition Percent ± SD, PDK-1; for IC50: three independent experiments, read-out: Mean IC50 µM ± SD, PDK-1
Sequence of PDK-1 (Q15118 29-436): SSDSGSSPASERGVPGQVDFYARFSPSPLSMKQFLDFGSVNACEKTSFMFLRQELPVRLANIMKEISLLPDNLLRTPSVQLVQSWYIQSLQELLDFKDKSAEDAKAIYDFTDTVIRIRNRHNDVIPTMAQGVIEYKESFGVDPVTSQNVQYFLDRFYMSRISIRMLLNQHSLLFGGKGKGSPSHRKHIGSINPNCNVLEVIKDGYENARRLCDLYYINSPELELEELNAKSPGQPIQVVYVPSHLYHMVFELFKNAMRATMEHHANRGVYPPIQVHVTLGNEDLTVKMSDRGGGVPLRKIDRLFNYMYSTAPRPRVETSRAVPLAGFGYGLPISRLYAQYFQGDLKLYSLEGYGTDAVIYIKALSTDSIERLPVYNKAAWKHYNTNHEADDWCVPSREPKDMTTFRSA
Procedure: Principally, the PDK-1 inhibitory activities were evaluated using the non-radioactive Kinase-Glo™ Luminescent Kinase Kit (Promega Corporation, Madison, WI, USA) following the instructions of the manufacturer.
S3.2.2. In vitro PDK-1 inhibition assay.
The PDK-1 inhibitory activities of the test compounds were evaluated using the non-radioactive
Kinase-Glo™ Luminescent Kinase kit (Promega Corporation, Madison, WI, USA), following the
manufacturer’s protocol. Briefly, 5 μL of assay buffer—containing 10 × 250 mM Tris-HCl, 50 mM
MgCl2, 5 mM ethyleneglycol-bis(β-aminoethylether)-N,N,N′,N′-tetraacetic acid (EGTA), 10 mM
ethylenedi- aminetetraacetic acid (EDTA), and 10 mM dithiothreitol (DTT)—was added to each
well of a 96-well plate, along with 25 μL of distilled water. Subsequently, 5 μL of each test
compound at various concentrations (50, 100, 200 and 300 μg/mL in 1% DMSO) was added to the
respective wells, except for the two control wells, which received 5 μL of either PBS buffer or 1%
DMSO. Then, 5 μL of pyruvate dehydrogenase E1 (PDH E1) protein (10 μM) and 5 μL of ATP
(10 μM) were added to each well. To initiate phosphorylation, 5 μL of PDK-1 (20 μM) in protein
buffer (1 mM MgCl2, 2000 mM KCl, 40 mM K3PO4) was added to all the wells except the control
wells, which received 5 μL of protein buffer instead. The plate was then mixed thoroughly and
incubated at 37 °C for 30 minutes. After incubation, 50 μL of kinase-Glo® reagent was added to each
well, followed by a 10-minute incubation at room temperature with gentle shaking to stabilize the
luminescent signal. Luminescence was then measured using a microplate reader.
The IC50 value—defined as the concentration of a compound required to reduce luminescence by
50%, compared to untreated control wells—was determined for each compound from the
corresponding dose–response curve generated by plotting PDK-1 inhibition (%) versus compound
concentration. Sodium dichloroacetate (SDA, 1000 μM) was used as a reference PDK-1inhibitor. […]

[5] = system: HCT-116 colon carcinoma cells; assay: Cell viability, LDH release assay, HCT-116; details: Homo sapiens, HCT-116, 48 h; for viability at 100 µg/mL: read-out: Mean % of viable cells ± SD, HCT-116, 100 µg/mL, 48 h, LDH release assay; for IC50: read-out: Mean IC50 Values in µM ± SD, HCT-116 cells
Procedure: as §1, §2, §3, §4, §5, §6, §7

## COc1cc2nc(C)n(C3CCCCC3)c(=O)c2cc1OC [Compound 14, 3-Cyclohexyl-6,7-dimethoxy-2-methylquinazolin-4(3H)-one]
[1]
  inhibition at 100 µg/mL: 37 ± 2.83%
  IC50: 378 ± 3.98 µM
[2]
  viability at 100 µg/mL: 13 ± 1.14%
  IC50: 292.1 ± 1.17 µM
[3]
  IC50: 0.327 ± 0.007 mM
[4]
  viability at 48 h, 100 µg/mL: 95 ± 1.82%
PDK-1
  inhibition at 100 µg/mL: 80.5 ± 4.95%
  IC50: 192 ± 5.57 µM
[5]
  viability at 100 µg/mL: 12.5 ± 0.71%
  IC50: 293 ± 5.38 µM

## Oc1ccc2ccccc2c1/C=N/c1ncnc2sc3c(c12)CCCC3 [Compound 3e, (E)-1-(((5,6,7,8-Tetrahydrobenzo[4,5]thieno[2,3-d]pyrimidin-4-yl)imino)methyl) naphthalene-2-ol]
[1]
  inhibition at 100 µg/mL: 28.3 ± 1.84%
[2]
  viability at 100 µg/mL: 62.3 ± 2.52%
[3]
  IC50: 0.89 ± 0.039 mM
[4]
  viability at 48 h, 100 µg/mL: 96.7 ± 1.16%
PDK-1
  inhibition at 100 µg/mL: 31.2 ± 3.18%
[5]
  viability at 100 µg/mL: 57 ± 1.73%

## COc1cc(C=C(NC(=O)c2ccccc2)c2n[nH]c(=S)o2)ccc1O [Compound 22, N-(2-(4-Hydroxy-3-methoxyphenyl)-1-(5-thioxo-4,5-dihydro-1,3,4-oxa-diazol-2-yl)vinyl)benzamide]
[1]
  inhibition at 100 µg/mL: 27.2 ± 2.48%
[2]
  viability at 100 µg/mL: 29.5 ± 2.12%
  IC50: 437.3 ± 1.51 µM
[3]
  IC50: 0.65 ± 0.076 mM
[4]
  viability at 48 h, 100 µg/mL: 79 ± 2%
PDK-1
  inhibition at 100 µg/mL: 39.5 ± 2.12%
[5]
  viability at 100 µg/mL: 40.5 ± 3.54%
  IC50: 511 ± 5.61 µM

## COc1cc(OC)c(/C=N/c2sc3c(c2C#N)CCCC3)c(OC)c1 [Compound 3b, (E)-2-((2,4,6-Trimethoxybenzylidene)amino)-4,5,6,7-tetrahydrobenzo[b]thiophene-3-carbonitrile]
[1]
  inhibition at 100 µg/mL: 82.8 ± 3.18%
  IC50: 167 ± 10.1 µM
[2]
  viability at 100 µg/mL: < 29%
  IC50: 190 µM
[3]
  IC50: 0.522 ± 0.025 mM
[4]
  viability at 48 h, 100 µg/mL: ~90%
PDK-1
  inhibition at 100 µg/mL: 94.7 ± 2.33%
  IC50: 147 ± 5.95 µM
[5]
  viability at 100 µg/mL: < 29%
  IC50: 170 µM

## CCOC(=O)c1sc(NC(=O)/C(=C/c2ccc(OC(C)=O)c(OC)c2)NC(=O)c2ccccc2)nc1C [Compound 20, Ethyl (Z)-2-(3-(4-Acetoxy-3-methoxyphenyl)-2-benzamido-acrylamido)-4-methylthiazole-5-carboxylate]
[1]
  inhibition at 100 µg/mL: 16.9 ± 1.27%
[2]
  viability at 100 µg/mL: 51 ± 2.83%
[3]
  IC50: 0.745 ± 0.027 mM
[4]
  viability at 48 h, 100 µg/mL: 73 ± 2.75%
PDK-1
  inhibition at 100 µg/mL: 28.2 ± 1.06%
[5]
  viability at 100 µg/mL: 49 ± 2.83%

## COc1ccc(/C=N/n2c(C)nc3ccc(F)cc3c2=O)cc1O [Compound 18g, (E)-6-Fluoro-3-((3-hydroxy-4-methoxybenzylidene)amino)-2-methylquinazolin-4(3H)-one]
[1]
  inhibition at 100 µg/mL: 22.2 ± 1.13%
[2]
  viability at 100 µg/mL: 74.7 ± 2.52%
[3]
  IC50: 0.238 ± 0.006 mM
[4]
  viability at 48 h, 100 µg/mL: 88 ± 2.65%
PDK-1
  inhibition at 100 µg/mL: 66 ± 1.73%
[5]
  viability at 100 µg/mL: 58.7 ± 3.06%

## CCOC(=O)c1sc(/N=C/c2cc(OC)c(OC)c(OC)c2)nc1C [Compound 9b, Ethyl(E)-4-methyl-2-((3,4,5-trimethoxybenzylidene)amino)thiazole-5-carboxylate]
[1]
  inhibition at 100 µg/mL: 33.4 ± 1.98%
[2]
  viability at 100 µg/mL: 60.3 ± 2.83%
[3]
  IC50: 1.81 ± 0.115 mM
[4]
  viability at 48 h, 100 µg/mL: 81.7 ± 2.52%
PDK-1
  inhibition at 100 µg/mL: 30.1 ± 1.56%
[5]
  viability at 100 µg/mL: 54 ± 4.58%

## Cc1nc2ccc(F)cc2c(=O)n1/N=C/c1cccs1 [Compound 18h, (E)-6-Fluoro-2-methyl-3-((thiophen-2-ylmethylene)amino)quinazolin-4(3H)-one]
[1]
  inhibition at 100 µg/mL: 18.9 ± 1.77%
[2]
  viability at 100 µg/mL: 33 ± 4.24%
  IC50: 479 ± 19.2 µM
[3]
  IC50: 0.379 ± 0.004 mM
[4]
  viability at 48 h, 100 µg/mL: 78 ± 2%
PDK-1
  inhibition at 100 µg/mL: 37 ± 3.61%
[5]
  viability at 100 µg/mL: 37 ± 2%
  IC50: 498 ± 12.6 µM

Reference: publication PMC12196476, “New Nitrogen-, Oxygen-, and Sulfur-Containing Heterocyclic Compounds as Anti-Colon Cancer Agents: Synthesis, Multitargeted Evaluations, Molecular Docking Simulations and ADMET Predictions” (Pharmaceuticals, 2025)
